Source: patent US4254285A, “1-Hydroxymethyl-1-1-oxo prostane derivatives of the E and F series” (American Cyanamid Company, priority 1979, dated 1981)

Columns and labels:
Assay type in all cases: in vivo
[1] = test system: bronchospasms elicited by acetylcholine; assay: Bronchodilator Activity (Konzett Assay), acetylcholine; conditions: Cavia porcellus; guinea pig, intravenous, spasmogen acetylcholine, three logarithmic cumulative doses; read-out: ED50
Experimental: (§1) The bronchodilator activity of some of the PGE compounds of this invention is determined in guinea pigs against bronchospasms elicited by intravenous injections of 5-hydroxytryptamine, histamine or acetylcholine by the Konzett procedure. [See J. Lulling, P. Lievens, F. El Sayed and J. Prignot, Arzneimittel-Forschung, 18, 995 (1968)].
(§2) In the Table B which follows, bronchodilator activity for representative compounds of this invention against one or more of the three spasmogenic agents is expressed as an ED50 determined from the results obtained with three logarithmic cumulative intravenous doses.

gastric acid secretion = assay: Gastric Acid Secretion in the Dog Fistula; conditions: 10 μg/kg I.G.; for cumulative two-hour gastric secretion, acid: n = 6, control 17.2 ± 1.6; for cumulative two-hour gastric secretion, volume: n = 6, control 130 ± 11
Experimental: Three mongrel dogs (20-32 kg) were surgically prepared with stainless steel cannulae. These were inserted into the most dependent portion of the ventral stomach and exteriorized through the abdomen for the collection of gastric secretions. The dogs were trained to stand quietly in a Pavlov support and were conscious during subsequent secretory studies.
^a After a 26hour fast, gastric acid secretion was submaximally
stimulated, beginning 45 minutes after treatment, using a constant
intravenous infusion of histamine acid phosphate ([…]).
^b Each of three dogs was treated six to seven times with vehicle
(control) and one to three times with each compound; n is the number of
experiments conducted with each treatment.
^c Total secretion from 45-120 minutes following intragastric (I.G.)
administration of drugs or vehicle. Mean effects of treatment were
compared to control means by Student's t test. Compound A is […]

[2] = test system: bronchospasms elicited by histamine; assay: Bronchodilator Activity (Konzett Assay), histamine; conditions: Cavia porcellus; guinea pig, intravenous, spasmogen histamine, three logarithmic cumulative doses; read-out: ED50
Experimental: as §1, §2

[3] = test system: continuous respiratory spasm induced by pilocarpine; assay: Bronchodilator Activity (Pilocarpine Assay); conditions: Canis lupus familiaris, inhaled or nasal, dog, aerosol, 3.2 mg/ml
Experimental: The PGE compounds of this invention also have bronchodilator activity as determined in a test using dogs anesthetized, artificially ventilated and submitted to a continuous respiratory spasm induced by pilocarpine. Mongrel dogs of either sex weighing between 5 and 10 kg are used. They are premedicated with morphine HCl by subcutaneous injection at 1.5 mg/Kg. An intravenous perfusion of 5% (W/V) chloralose is started 1/2 hour after the morphine injection in such a way that 60 mg/Kg are administered within 15 minutes. After completion, a continuous perfusion of 10 mg/Kg hour is maintained throughout the experiment. The dogs are artificially ventilated by means of a Starling pump at a rate of 20 breaths/minute. The volume is adjusted according to the weight of the animal. [Kleinman and Radford, J. Appl. Physiol., 19, 360 (1964)]. All the measurements are made with the dogs positioned supine in a heated, V-shaped table. Curarization is obtained by succinylcholine chloride using a starting injection of 3 mg/Kg lasting 3 minutes, followed by a continuous perfusion of 0.1 mg/Kg/minute. The respiratory spasm is induced by a starting injection of 400 mcg/Kg of pilocarpine HCl lasting 5 minutes. An increase or decrease in the dose of pilocarpine HCl may occur as a function of the observed effect on airway's resistance. A 15 minute delay is observed before the start of a continuous perfusion of pilocarpine HCl at a dose of 4 mcg/Kg/minute to maintain a constant spasm during the test. A metallic cannula is inserted and fixed, after tracheotomy, into the upper part of the trachea. The two cephalic veins and the two femoral veins are catheterized to inject the various agents. The femoral artery is catheterized to measure the systemic blood pressure. An esophageal balloon (11 cm×2.5 cm) is inserted into the lower third of the oesophagus to measure the endothoracic pressure. The measurement of air flow is made with a […] pneumotachograph connected to the tracheal tube. The transpulmonary pressure is measured as follows: The tracheal cannula is equipped with a stainless steel axial tube (1.5 mm) which is closed at its distal end and projected 2.5 cm beyond the end of the cannula. Three holes with a diameter of one mm are pierced on this latter segment. This tube, which is used to measure the tracheal pressure, is connected to one of the two chambers of a Sanborn 267 B/C differential transducer. The other chamber is connected to the esophageal balloon by means of a polyethylene catheter of the same length and characteristics as the balloon's. The airway's resistance, expressed in cm of water/liter/second, is measured by subtracting from the electrical equivalent of the transpulmonary pressure, a voltage proportional to the flow so as to synchronize the pressure and volume signals on the oscilloscope [Mead and Whittenberger, J. Appl. Physiol, 5, 779 (1953)]. The test compounds are administered by an Aerosol® route. The micronebulizer of a Bird Mark 7 respirator is fitted on the metallic cannula just after the pneumotachograph. The "puff" of the test compound, in Aerosol® is driven by a 2 Kg/cm^2 pressure, allowed into the micronebulizer just during one inspiration cycle. The micronebulizer is fitted on the respiratory tube only during the "puff". It is weighed just before and just after administration to determine the amount of test compound administered.

[4] = test system: stress-induced (immersion) ulcers; assay: Restraint--Immersion Stress Ulcers in the Rat (Wilson)
Experimental: Male "Sprague--Dawley Derived" rats (Locke--Erickson Laboratories, Maywood, Illinois) weighing 150 to 200 g, are fasted, and provided drinking water for 16 to 19 hours prior to the start of the study. At 0 time the rats are dosed orally with compound or vehicle, (approximately 0.5 ml) and then secured in a Bollman-type restraining cage. Five minutes after dosing, the animals are immersed (tail downward) to "shoulder level" into a 22° C. water bath for 100 minutes. At the end of this period, the animals are decapitated and their stomachs promptly excised with about 5 mm each of esophagus and duodenum.
With a blunt tipped scissor the stomach is opened along the greater curvature, starting at the tip of the rumen through the glandular mucosa into the pylorus and opening the bit of duodenum along its amesenteric border. Debris is removed from stomach by rinsing in saline at room temperature and gently blotting it with gauze or filter paper. The stomach is then spread out, mucosal surface upward on a 3×5 file card or similar material.
With an illuminated magnifier the lesions are counted (for total lesion count) and scored (for weighted score) after the method described by G. Osterloh, et al., Arzneimittel-Forschung, 16 (8a):901910, August 1966. The score for each lesion is given in the following table, modified from the paper.
Very large (area) non-perforating lesions are frequently seen. These are measured as so many 3 mm diameter ulcers and scored as multiples of #7.
Rats were dosed by gavage with compound or vehicle and submerged into a
22° C. water bath for 100 minutes. At the end of this period,
animals were sacrificed and their stomachs removed and scored for ulcers.

[5] = test system: bronchospasms elicited by 5-hydroxytryptamine; assay: Bronchodilator Activity (Konzett Assay), 5-hydroxytryptamine; conditions: Cavia porcellus; guinea pig, intravenous, spasmogen 5-hydroxytryptamine, three logarithmic cumulative doses; read-out: ED50
Experimental: as §1, §2

[6] = 5 min, 5 min. after drug administration
[7] = 0.5 h, 30 min. after drug administration
[8] = 1 h, 60 min. after drug administration

SMILES | ED50 [1] [µg/kg] | cumulative two-hour gastric secretion, acid (gastric acid secretion) [mEq H^+] | cumulative two-hour gastric secretion, volume (gastric acid secretion) [mL] | ED50 [2] [µg/kg] | inhibition at 3200 µg/mL [3, 6] [%] | inhibition at 3200 µg/mL [3, 7] [%] | inhibition at 3200 µg/mL [3, 8] [%] | % Reduction of ulcer score ([4]; 3 mg/Kg P.O.) [%] | % Reduction of ulcer score ([4]; 16 mg/Kg P.O.) [%] | % Reduction of ulcer score ([4]; 80 mg/Kg P.O.) [%] | % Reduction of ulcer score ([4]; 200 mg/Kg P.O.) [%] | % Reduction of ulcer score ([4]; 500 mg/Kg P.O.) [%] | ED50 [5] [µg/kg]
CCCCC(C)(O)CC=CC1C(O)CC(=O)C1CCCCCCC(=O)CO (centres unmarked) | 4.7 | 6.9 ± 2.8 | 59 ± 19 | 0.943 | 90 | 70 | 45 | 62 | 85 | 82 | 67 | 82 | 3
CCCCC(C)(O)CC=CC1C(O)CC(=O)C1CC=CCCCC(=O)CO (stereo not drawn) [1,9-dioxo-11α,16-dihydroxy-16-methyl-1-hydroxymethyl-5-cis-13-trans-prostadiene] | 6.4 | 7.5 ± 2.1 | 76 ± 16 | 3 | 90 | 90 | 70 | – | – | – | 85 | 95 | 3.81
